The record followed here is patent US11066379B2 (THE TEXAS A&M UNIVERSITY SYSTEM, priority 2018, dated 2021).

Like-named read-outs stand apart in the source and are kept apart here.

Series [1] deals with T1, CypA (Homo sapiens, UniProt P62937).
T1 construct: Active human CypA full-length protein was from Abcam; purchased Abcam
Description: CypA PPIase activity inhibition. The format is biochemical. The settings on record: PPIase IC50 CypA vs CypD.

Series [2] relates to SH-SY5Y cells. Description: Cellular toxicity in SH-SY5Y cells (MTT, 24 h). The format is cell-based. The settings on record: for cytotoxicity toward SH-SY5Y cells: 10-0.01 μM, in words; for IC50: Homo sapiens, SH-SY5Y, read-out: IC50 (cellular toxicity). An excerpt:
(§1) The MTT (3-[4,5-dimethylthiazol-2-yl]-2,5-diphenyltetrazoliumbromide) assay was used to determine the cytotoxicity of gracilin derivatives in T lymphocytes (Burton, J. D. Methods Mol. Med., 2005, 110, 69-78) and SH-SY5Y cells and the protective effect of these compounds against H2O2 insult in neuroblastoma cells as previously described (Leiros, M., Alonso, E., Sanchez, J. A., Rateb, M. E., Ebel, R., Houssen, W. E., Jaspars, M., Alfonso, A. and Botana, L. M. ACS Chem. Neurosci., 2014, S, 71-80). Human T lymphocytes were cultured in 24 well plates at the concentration of 2.5×10^6 cells/mL and exposed to different compound concentrations (0.01, 0.1, 1 and 10 μM) added to the culture medium. Human T cells were maintained in the presence of the pure compound at 37° C. in humidified 5% CO2/95% air atmosphere for 48 h.
SH-SY5Y cells were seeded in 96-well plates at a density of 2.5×10^5 cells/mL and allowed to adhere for 24 h. At first, cells were treated only with compounds at concentrations ranging from 10-0.01 μM for 24 h to determine their possible cytotoxic effects. Experiments were carried out three times. For neuroprotective experiments, cells were treated with compounds at non-toxic concentrations (1 μM→1 nM) and 150 μM H2O2 for 6 h. Briefly, cells were washed three times with saline solution and 200 μL of MTT (500 μg/mL) dissolved in saline buffer were added to each well. Following 1 h of incubation at 37° C., the cells were disaggregated with sodium dodecyl sulphate at 5%.
Absorbance of formazan crystals was measured at 595 nm with a spectrophotometer plate reader. Saponin was used as death control and its absorbance was subtracted from the other data. All experiments were performed four times.

The test system of series [3] is SH-SY5Y cells. Description: Intracellular ROS levels (carboxy-H2DCFDA) after H2O2. It is filed as cell-based, human. The settings on record: 150 μM H2O2 co-treatment 6 h. How it is done: Intracellular levels of reactive oxygen species (ROS) were determined with carboxy-H2DCFDA (5-(and-6)-carboxy-2′,7′-dichlorodihydrofluorescein diacetate). This dye diffuses through the cellular membrane and is converted by cellular esterases to carboxy-H2DCFH (non-fluorescent). When carboxy-H2DCFH is oxidized by ROS, it becomes fluorescent (Halliwell, B. and Whiteman, M. Br. J. Pharmacol., 2004, 142, 231-255). Cells were seeded at a density of 2.5×10^5 cells/mL in 96-well plates and allowed to attach for 24 h. Following treatment with compounds at various concentrations (1 μM→1 nM) and 150 μM H2O2 for 6 h, SH-SY5Y cells were washed twice with serum-free culture medium. Then, carboxy-H2DCFDA 20 μM dissolved in serum-free culture medium was added to each well and the cells were incubated for 1 h at 37° C. After this incubation, the medium with the fluorescent dye was replaced with PBS and the plate was incubated for 30 min at 37° C. Fluorescence was read at 527 nm, with an excitation wavelength of 495 nm. All experiments were performed four times.

Series [4] relates to SHSY5Y cells. Description: Neuroprotective effects summarised over all five assays (viability, TMRM, ROS, GSH, mPTP). The following applies: 0.001, 0.01 or 0.1 μM; H2O2 challenge. It is filed as cell-based, human. As for the experimental part:
As described previously, neuroprotective agents can mediate their effects through inhibition of CypD, an isoform of CypA. […] All assays were performed at the indicated concentrations (0.001, 0.01, or 0.1 μM) based on initial cytotoxicity determined with SHSY5Y cells (Table 1).

Series [5] can be described thus: Viability of human T lymphocytes (MTT assay, 48 h). The format is cell-based. The settings on record: human; 0.1 μM, 48 hours; read-out: decrease in cell viability.
From the text: as §1
(§2) Saponin was used as cellular death control and its absorbance was subtracted from the other data. After the incubation period with compounds, assay was performed. First cells were centrifuged (1500 rpm, 5 min, 4° C.). The pellets were resuspended in saline solution with MTT (250 μg/mL) and then incubated at 37° C. during 30 min. After washing off excess MTT twice with saline solution, cells were disaggregated with H2O and sonicated for 1 min and the absorbance of the colored formazan salt was measured at 595 nm in a spectrophotometer plate reader. All experiments were performed three times.

The subject of series [6] is human T lymphocytes. Description: Viability of human T lymphocytes (MTT assay, 48 h). It is filed as cell-based. The following applies: in words.
From the text: as §1, §2

T1 sequence (P62937 whole entry): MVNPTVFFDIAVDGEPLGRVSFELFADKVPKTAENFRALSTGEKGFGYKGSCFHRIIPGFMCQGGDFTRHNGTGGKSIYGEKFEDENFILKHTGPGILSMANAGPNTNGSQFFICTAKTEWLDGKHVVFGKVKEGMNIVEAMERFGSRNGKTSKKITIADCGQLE

`CC(=O)O[C@H]1O[C@@H](OC(C)=O)[C@@H]2CC[C@](O)(C3(C)CCCC(C)(C)C3)C[C@H]12` (stereo partly drawn) [Compound 22, (1S,3R,3aS,5R,7aR)-5-hydroxy-5-(1,3,3-trimethylcyclohexyl)octahydroisobenzo-furan-1,3-diyl diacetate]: the “selectivity for CypA” value in series [1] stood at 4 fold. Moreover, the “cytotoxicity toward SH-SY5Y cells” value in series [2] (24 h) is “led to cell death at the higher concentrations tested”. Further, the 50% inhibitory concentration (IC50) in series [2] (24 h incubation) turned out to be 6.5 µM. Moreover, the ROS levels entry in series [3] was “diminishing ROS at two or three concentrations”. The “neuroprotective / antioxidant effects based on all five assays” value in series [4] was “displayed significant neuroprotective effects”.
As to `CC(=O)O[C@@H]1OC[C@H]2C=C(C3(C)CCCCC3)CC[C@@H]12` [Compound 27a, (1S,3aS,7aR)-5-(1-methylcyclohexyl)-1,3,3a,6,7,7a-hexahydroisobenzofuran-1-yl acetate], in series [2] (24 h), the “cytotoxicity toward SH-SY5Y cells” value is listed as “led to cell death at the higher concentrations tested”. Further, in series [3], the ROS levels result is recorded as “diminishing ROS at two or three concentrations”. Further, in series [4], the “neuroprotective / antioxidant effects based on all five assays” value is reported as “displayed significant neuroprotective effects”.
Take `CC(=O)O[C@H]1OC[C@@H]2C=C([C@@]3(C)CCCC(C)(C)C3)CC[C@H]12` [Compound 29a, (1R,3aR,7aS)-5-(1,3,3-trimethylcyclohexyl)-1,3,3a,6,7,7a-hexahydroisobenzofuran-1-yl acetate]: in series [2] (24 h), the “cytotoxicity toward SH-SY5Y cells” value is given as “led to cell death at the higher concentrations tested” and the IC50 worked out at 16.5 µM. For the same compound, the “neuroprotective / antioxidant effects based on all five assays” value in series [4] is “displayed significant neuroprotective effects”. The cytotoxicity at 48 h, 0.1 μM in series [5] is 15 to 25%. In addition, in series [6], the “impact on T-cell viability” value was “relatively non-toxic”.
